Values of other authors, collected in patent publication US9125411B2, “UV absorbers for reducing the E/Z isomerization of pesticides” (BASF SE, priority 2010, dated 2015).

metaflumizone
pesticidal activity of the E isomer relative to the Z isomer (E isomer higher than Z isomer): up to 10 fold | change of activity by irradiation by light (Takagi et al., Veterinary Parasitology, 2007): loses activity
